Laboratory results as given in patent publication US11685714B2, “Prodrugs of cytotoxic active agents having enzymatically cleavable groups” (BAYER PHARMA AKTIENGESELLSCHAFT, priority 2016, dated 2023).

What was measured:
[1] = tested on: NCI-H292: human mucoepidermoid lung carcinoma cells; test: MTT assay on NCI-H292; assay type: cell-based; details: NCI-H292, 96 h, growth inhibition, 96 h incubation
Description: (§1) The analysis of the cytotoxic effects of the ADCs was carried out with various cell lines:
(§2) The cells were cultivated by the standard method as stated by the American Tissue Culture Collection (ATCC) or the Leibniz-lnstitut DSMZ-Deutsche Sammlung von Mikroorganismen und Zellkulturen GmbH (DSMZ) for the cell lines in question.
(§3) The cells were then incubated in an incubator at 37° C. and 5% carbon dioxide. […] To this end, the MTT reagent was incubated with the cells for 4 h, followed by lysis of the cells overnight by addition of the detergent. […] The measured data were used to calculate the ICo50 of the growth inhibition using the DRC (dose response curve). The proliferation of cells which were not treated with test substance but were otherwise identically treated was defined as the 100% figure.

[2] = biological target: T1, motor domain of the human kinesin spindle protein KSP/Eg5 (Homo sapiens, UniProt P52732); test: Inhibition of the kinesin spindle protein KSP/Eg5 (ATPase activity, malachite green); assay type: biochemical; details: 10 nM KSP/Eg5, microtubuli, 500 μM ATP, 2 h at RT
T1 construct: The motor domain of the human kinesin spindle protein KSP/Eg5; purchased tebu-bio/Cytoskeleton Inc 027EG01-XL
T1 sequence (P52732 18-359 limits assumed): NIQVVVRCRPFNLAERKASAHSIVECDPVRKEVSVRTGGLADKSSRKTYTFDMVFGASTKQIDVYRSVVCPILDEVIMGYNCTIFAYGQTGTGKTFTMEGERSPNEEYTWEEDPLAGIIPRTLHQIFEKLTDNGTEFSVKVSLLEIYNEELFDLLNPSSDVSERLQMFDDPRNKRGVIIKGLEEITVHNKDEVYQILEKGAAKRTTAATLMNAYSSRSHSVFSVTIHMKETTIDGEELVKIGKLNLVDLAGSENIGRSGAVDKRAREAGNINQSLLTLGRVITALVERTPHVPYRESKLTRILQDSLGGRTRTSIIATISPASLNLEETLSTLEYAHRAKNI
Description: The motor domain of the human kinesin spindle protein KSP/Eg5 (tebu-bio/Cytoskeleton Inc, No. 027EG01-XL) was incubated in a concentration of 10 nM with microtubuli (bovine or porcine, tebu-bio/Cytoskeleton Inc) stabilized with 50 μg/ml taxol (Sigma No. T7191-5MG) for 5 min at RT in 15 mM PIPES, pH 6.8 (5 mM MgCl2 and 10 mM DTT, Sigma). […] Incubation was at RT for 2 h. ATPase activity was detected by detecting the inorganic phosphate formed using malachite green (Biomol). […] The positive controls used were monastrol (Sigma, M8515-1 mg) and ispinesib (AdooQ Bioscience A10486). The individual data of the dose-activity curve are eight-fold determinations. The IC50 values are means of two independent experiments.

[3] = tested on: SK-HEP-1: human liver cell cancer line; test: MTT assay on SK-HEP-1; assay type: cell-based; details: SK-HEP1, 96 h, growth inhibition, 96 h incubation
Description: as §1, §2, §3

[4] = Assay for determination of stability in rat plasma; assay type: in vitro ADME; details: 1 μg/ml, 37° C., 24 h
Description: To examine the stability of compounds A and B, 1 ml of rat plasma in a 1.5 ml Eppendorf tube in each case was equilibrated to 37° C. on an Eppendorf shaker. A stock solution (9 acetonitrile/1 DMSO) having a concentration of 100 μg/ml for compound A and compound B was prepared. 10 μl in each case of the stock solution were pipetted into 1 ml of equilibrated rat plasma, so as to give a concentration of 1 μg/ml.
The samples were kept at 450 rpm and 37° C. for 24 h. At each of the sampling times of 0, 0.25 h, 0.5 h, 1 h, 2 h, 4 h, 6 h and 24 h, 50 μl were taken and pipetted into 150 μl of methanol. Internal standard was included in the initial charge of methanol at a concentration of 0.05 μg/ml. After brief vortexing, 300 μl of 10 mM ammonium acetate buffer (pH 6.8) were added and centrifuged at 1881 g for 10 min. The samples were then analysed by means of RP-HPLC analysis and by LC-MS analysis.

[5] = tested on: KPL4: human breast cancer cell line; test: MTT assay on KPL4; assay type: cell-based; details: KPL4, 96 h, growth inhibition, 96 h incubation
Description: as §1, §2, §3

SMILES | IC50 [1] | IC50 [2] | IC50 [3] | stability in rat plasma [4] | IC50 [5]
CC(C)(C)[C@H](c1cc(-c2cc(F)ccc2F)cn1Cc1ccccc1)N(CC[C@H](N)C(=O)NCCNC(=O)CCCC(=O)NCCCC[C@H](N)C(=O)O)C(=O)CO [Example M29, N^6-(5-{[2-({(2S)-2-Amino-4-[{(1R)-1-[1-benzyl-4-(2,5-difluorophenyl)-1H-pyrrol-2-yl]-2,2-dimethylpropyl} (glycoloyl)amino]butanoyl}amino)ethyl]amino}-5-oxopentanoyl)-L-lysine/trifluoroacetic acid (1:1)] | 187 nM | 2.03 nM | 207 nM | – | –
CNC(=O)[C@H](CCN(C(=O)CO)[C@@H](c1cc(-c2cc(F)ccc2F)cn1Cc1ccccc1)C(C)(C)C)NC(=O)[C@H](CC(N)=O)NC(=O)[C@H](C)NC(=O)[C@H](C)NC(=O)Cc1ccncc1 [Example R3r-LLL, N-(Pyridin-4-ylacetyl)-L-alanyl-L-alanyl-N^1-[(2S)-4-[{(1R)-1-[1-benzyl-4-(2,5-difluorophenyl)-1H-pyrrol-2-yl]-2,2-dimethylpropyl}(glycoloyl)amino]-1-(methylamino)-1-oxobutan-2-yl]-L-aspartamide, reference compound] | 204 nM | 162 nM | 232 nM | stable over 24 h | –
CC(C)(C)[C@H](c1cc(-c2cc(F)ccc2F)cn1Cc1ccccc1)N(CC[C@H](N)C(=O)NCCNC(=O)CNC(=O)CCCC(=O)NCCCC[C@H](N)C(=O)O)C(=O)CO [Example M28, N^6—{(3R,7S)-7-Amino-3-[1-benzyl-4-(2,5-difluorophenyl)-1H-pyrrol-2-yl]-4-glycoloyl-2,2-dimethyl-8,13,16,20-tetraoxo-4,9,12,15-tetraazaicosan-20-yl}-L-lysine/trifluoroacetic acid (1:1)] | 155 nM | 1.41 nM | 187 nM | – | 210 nM
